These molecules were tested on mice (assay: Neuropharmacological assay (SmartCube), behavioral signature of compound-treated mice). Conditions: i.p. 15 min before behavioral test, most efficacious dose(s) of 3 doses.
Assay type: in vivo
Procedure, shortened: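 Read-out is an automated video-based behavioral signature, scored as per-class probabilities (e.g., anxiolytic, antidepressant) against reference compounds. Dosing was i.p. at three doses, 15 min pre-test, in NMP, polyethylene glycol and propylene glycol. Values shown are from the most efficacious dose(s).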

Row | SMILES | AD: ADHD (probability that behavioral signature matches class) | AG: analgesic (probability that behavioral signature matches class) | AX: anxiolytic (probability that behavioral signature matches class) | CE: cognitive enhancer (probability that behavioral signature matches class) | DP: anti-depressant (probability that behavioral signature matches class) | HA: hallucinogen (probability that behavioral signature matches class) | MS: mood stabilizer (probability that behavioral signature matches class) | PS: anti-psychotic (probability that behavioral signature matches class) | SD: sedative hypnotic (probability that behavioral signature matches class) | UN: uncharacterized CNS activity (probability that behavioral signature matches class)
1 | c1cc2c(c3c1CO[C@H]3[C@@H]1CCCN1)OCO2 [Compound I-141, (S)-2-((R)-6,8-dihydro-[1,3]dioxolo[4,5-e]isobenzofuran-8-yl)-pyrrolidine] | ++ (5% ≤ ++ <25%) | ++ (5% ≤ ++ <25%) | ++ (5% ≤ ++ <25%) | +++ (25% ≤ +++ <50%) | ++ (5% ≤ ++ <25%) | ++ (5% ≤ ++ <25%) | + (LOQ ≤ + <5%) | ++ (5% ≤ ++ <25%) | + (LOQ ≤ + <5%) | ++++ (50% ≤ ++++)
2 | Cc1cccc2c1[C@H]([C@H]1CCCN1)OCCC2 [Compound I-103, (R)-2-((R)-9-methyl-1,3,4,5-tetrahydrobenzo[c]oxepin-1-yl)pyrrolidine] | + (LOQ ≤ + <5%) | ++ (5% ≤ ++ <25%) | ++ (5% ≤ ++ <25%) | + (LOQ ≤ + <5%) | ++ (5% ≤ ++ <25%) | + (LOQ ≤ + <5%) | + (LOQ ≤ + <5%) | + (LOQ ≤ + <5%) | ++ (5% ≤ ++ <25%) | +++ (25% ≤ +++ <50%)
3 | OC1CO[C@@H]([C@@H]2CCCN2)c2ccc(F)cc21 (stereo partly drawn) [Compound I-134, (1R)-6-fluoro-1-((S)-pyrrolidin-2-yl)isochroman-4-ol] | + (LOQ ≤ + <5%) | + (LOQ ≤ + <5%) | ++ (5% ≤ ++ <25%) | + (LOQ ≤ + <5%) | + (LOQ ≤ + <5%) | + (LOQ ≤ + <5%) | + (LOQ ≤ + <5%) | + (LOQ ≤ + <5%) | + (LOQ ≤ + <5%) | + (LOQ ≤ + <5%)
4 | N#Cc1ccc2c(c1)[C@H]([C@@H]1CCCN1)OCC2 [Compound I-40, (R)-1-((S)-pyrrolidin-2-yl)isochroman-7-carbonitrile] | + (LOQ ≤ + <5%) | + (LOQ ≤ + <5%) | ++ (5% ≤ ++ <25%) | ++ (5% ≤ ++ <25%) | ++ (5% ≤ ++ <25%) | + (LOQ ≤ + <5%) | + (LOQ ≤ + <5%) | +++ (25% ≤ +++ <50%) | + (LOQ ≤ + <5%) | + (LOQ ≤ + <5%)
5 | Fc1cccc2c1[C@@H]([C@@H]1CCN1)OCC2 [Compound I-84, (S)-2-((S)-8-fluoroisochroman-1-yl)azetidine] | + (LOQ ≤ + <5%) | + (LOQ ≤ + <5%) | ++ (5% ≤ ++ <25%) | + (LOQ ≤ + <5%) | ++ (5% ≤ ++ <25%) | + (LOQ ≤ + <5%) | ++ (5% ≤ ++ <25%) | ++++ (50% ≤ ++++) | ++ (5% ≤ ++ <25%) | + (LOQ ≤ + <5%)
6 | N#Cc1cccc2c1[C@H]([C@@H]1CCCN1)OCC2 [Compound I-38, (R)-1-((S)-pyrrolidin-2-yl)isochroman-8-carbonitrile] | + (LOQ ≤ + <5%) | ++ (5% ≤ ++ <25%) | ++ (5% ≤ ++ <25%) | + (LOQ ≤ + <5%) | ++ (5% ≤ ++ <25%) | + (LOQ ≤ + <5%) | + (LOQ ≤ + <5%) | + (LOQ ≤ + <5%) | + (LOQ ≤ + <5%) | + (LOQ ≤ + <5%)
7 | c1cc2c(c3c1CCO[C@@H]3[C@@H]1CCCN1)OCO2 [Compound I-51, (S)-2-((S)-7,9-dihydro-6H-[1,3]dioxolo[4,5-h]isochromen-9-yl)pyrrolidine] | + (LOQ ≤ + <5%) | ++ (5% ≤ ++ <25%) | ++ (5% ≤ ++ <25%) | + (LOQ ≤ + <5%) | + (LOQ ≤ + <5%) | + (LOQ ≤ + <5%) | + (LOQ ≤ + <5%) | + (LOQ ≤ + <5%) | + (LOQ ≤ + <5%) | ++ (5% ≤ ++ <25%)
8 | Clc1ccc2c(c1)[C@H]([C@H]1CCCN1)OCC2 [Compound I-31, (R)-2-((R)-7-chloroisochroman-1-yl)pyrrolidine] | + (LOQ ≤ + <5%) | ++ (5% ≤ ++ <25%) | +++ (25% ≤ +++ <50%) | ++ (5% ≤ ++ <25%) | ++ (5% ≤ ++ <25%) | + (LOQ ≤ + <5%) | ++ (5% ≤ ++ <25%) | +++ (25% ≤ +++ <50%) | ++ (5% ≤ ++ <25%) | + (LOQ ≤ + <5%)
9 | Fc1ccc2c(c1)[C@@H]([C@@H]1CCCN1)OCC2 [Compound I-6, (2S)-2-((S)-7-fluoroisochroman-1-yl)pyrrolidine] | + (LOQ ≤ + <5%) | + (LOQ ≤ + <5%) | ++ (5% ≤ ++ <25%) | + (LOQ ≤ + <5%) | ++ (5% ≤ ++ <25%) | + (LOQ ≤ + <5%) | + (LOQ ≤ + <5%) | ++ (5% ≤ ++ <25%) | + (LOQ ≤ + <5%) | +++ (25% ≤ +++ <50%)
10 | C[C@@]1([C@@H]2CCCN2)OCc2cc(F)ccc21 [Compound I-122, (S)-2-((R)-5-fluoro-1-methyl-1,3-dihydroisobenzofuran-1-yl)pyrrolidine] | + (LOQ ≤ + <5%) | + (LOQ ≤ + <5%) | ++ (5% ≤ ++ <25%) | + (LOQ ≤ + <5%) | ++ (5% ≤ ++ <25%) | + (LOQ ≤ + <5%) | + (LOQ ≤ + <5%) | + (LOQ ≤ + <5%) | + (LOQ ≤ + <5%) | + (LOQ ≤ + <5%)
11 | CC1(C)Cc2ccccc2[C@H]([C@@H]2CCCN2)O1 [Compound I-66, (S)-2-((R)-3,3-dimethylisochroman-1-yl)pyrrolidine] | + (LOQ ≤ + <5%) | ++ (5% ≤ ++ <25%) | ++ (5% ≤ ++ <25%) | ++ (5% ≤ ++ <25%) | ++ (5% ≤ ++ <25%) | + (LOQ ≤ + <5%) | + (LOQ ≤ + <5%) | +++ (25% ≤ +++ <50%) | + (LOQ ≤ + <5%) | ++ (5% ≤ ++ <25%)

Same assay, conditions: i.p. 15 min before behavioral test, most efficacious dose(s) of 3 doses

Row | SMILES | XG: anxiogenic (probability that behavioral signature matches class)
12 | c1cc2c(c3c1CO[C@H]3[C@@H]1CCCN1)OCO2 [Compound I-141, (S)-2-((R)-6,8-dihydro-[1,3]dioxolo[4,5-e]isobenzofuran-8-yl)-pyrrolidine] | + (LOQ ≤ + <5%)
13 | Cc1cccc2c1[C@H]([C@H]1CCCN1)OCCC2 [Compound I-103, (R)-2-((R)-9-methyl-1,3,4,5-tetrahydrobenzo[c]oxepin-1-yl)pyrrolidine] | + (LOQ ≤ + <5%)
14 | OC1CO[C@@H]([C@@H]2CCCN2)c2ccc(F)cc21 (stereo partly drawn) [Compound I-134, (1R)-6-fluoro-1-((S)-pyrrolidin-2-yl)isochroman-4-ol] | + (LOQ ≤ + <5%)
15 | N#Cc1ccc2c(c1)[C@H]([C@@H]1CCCN1)OCC2 [Compound I-40, (R)-1-((S)-pyrrolidin-2-yl)isochroman-7-carbonitrile] | + (LOQ ≤ + <5%)
16 | Fc1cccc2c1[C@@H]([C@@H]1CCN1)OCC2 [Compound I-84, (S)-2-((S)-8-fluoroisochroman-1-yl)azetidine] | + (LOQ ≤ + <5%)
17 | N#Cc1cccc2c1[C@H]([C@@H]1CCCN1)OCC2 [Compound I-38, (R)-1-((S)-pyrrolidin-2-yl)isochroman-8-carbonitrile] | + (LOQ ≤ + <5%)
18 | c1cc2c(c3c1CCO[C@@H]3[C@@H]1CCCN1)OCO2 [Compound I-51, (S)-2-((S)-7,9-dihydro-6H-[1,3]dioxolo[4,5-h]isochromen-9-yl)pyrrolidine] | + (LOQ ≤ + <5%)
19 | Clc1ccc2c(c1)[C@H]([C@H]1CCCN1)OCC2 [Compound I-31, (R)-2-((R)-7-chloroisochroman-1-yl)pyrrolidine] | + (LOQ ≤ + <5%)
20 | Fc1ccc2c(c1)[C@@H]([C@@H]1CCCN1)OCC2 [Compound I-6, (2S)-2-((S)-7-fluoroisochroman-1-yl)pyrrolidine] | + (LOQ ≤ + <5%)
21 | C[C@@]1([C@@H]2CCCN2)OCc2cc(F)ccc21 [Compound I-122, (S)-2-((R)-5-fluoro-1-methyl-1,3-dihydroisobenzofuran-1-yl)pyrrolidine] | + (LOQ ≤ + <5%)
22 | CC1(C)Cc2ccccc2[C@H]([C@@H]2CCCN2)O1 [Compound I-66, (S)-2-((R)-3,3-dimethylisochroman-1-yl)pyrrolidine] | + (LOQ ≤ + <5%)

— patent US10336732B2, “1-heterocyclyl isochromanyl compounds and analogs for treating CNS disorders” (Sunovion Pharmaceuticals Inc., priority 2015, dated 2019)
